In patent US11230538B2, “Herbicides” (SYNGENTA PARTICIPATIONS AG, priority 2016, dated 2022):

Tests used:
Assay type in all cases: in vivo
[1] = system: Alopecurus myosuroides (ALOMY); assay: B1 Pre-emergence herbicidal activity; design: key: 5=total damage to plant; 0=no damage to plant; conditions: pre-emergence application, rate 1000 g/ha, evaluated after 13 days
Procedure, shortened: (§1)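 Test species received a pre-emergence application one day post-sowing in an acetone/water solution with 0.5% Tween 20. Phytotoxicity was assessed 13 days later on a scale where 0 means no damage and 5 total plant death.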

Avena fatua (AVEFA) [2] = assay: B1 Pre-emergence herbicidal activity; design: key: 5=total damage to plant; 0=no damage to plant; conditions: pre-emergence application, rate 1000 g/ha, evaluated after 13 days
Procedure, shortened: as §1

[3] = system: Triticum aestivium (TRZAW); assay: B1 Pre-emergence herbicidal activity; design: key: 5=total damage to plant; 0=no damage to plant; conditions: pre-emergence application, rate 1000 g/ha, evaluated after 13 days
Procedure, shortened: as §1

[4] = system: Echinochloa crus-galli (ECHCG); assay: B1 Pre-emergence herbicidal activity; design: key to Pre-emergence herbicidal activity, ECHCG (damage score 0-5): 5=total damage to plant; 0=no damage to plant; conditions: pre-emergence application, rate 1000 g/ha, evaluated after 13 days
Procedure, shortened: as §1

Lolium perenne (LOLPE) [5] = assay: B1 Pre-emergence herbicidal activity; conditions: pre-emergence application, rate 1000 g/ha, evaluated after 13 days
Procedure, shortened: as §1

Setaria fabenr (SETFA) = assay: B1 Pre-emergence herbicidal activity; design: key to Pre-emergence herbicidal activity, SETFA (damage score 0-5): 5=total damage to plant; 0=no damage to plant; conditions: pre-emergence application, rate 1000 g/ha, evaluated after 13 days
Procedure, shortened: as §1

Avena fatua (AVEFA) [6] = assay: B2 Post-emergence herbicidal activity; conditions: post-emergence application, rate 1000 g/ha, evaluated after 13 days
Procedure: (§2) Seeds of a variety of test species were sown in standard soil in pots: Triticum aestivium (TRZAW), Avena fatua (AVEFA), Alopecurus myosuroides (ALOMY), Echinochloa crus-galli (ECHCG), Lolium perenne (LOLPE), Zea Mays (ZEAMX), Abutilon theophrasti (ABUTH), Amaranthus retroflexus (AMARE) and Setaria fabenri (SETFA). After 8 days cultivation (post-emergence) under controlled conditions in a glasshouse (at 24/16° C., day/night; 14 hours light; 65% humidity), the plants were sprayed with an aqueous spray solution derived from the formulation of the technical active ingredient in acetone I water (50:50) solution containing 0.5% Tween 20 (polyoxyethelyene sorbitan monolaurate, CAS RN 9005-64-5). The test plants were then grown in a glasshouse under controlled conditions (at 24/16° C., day/night; 14 hours light; 65% humidity) and watered twice daily. After 13 days, the test was evaluated (5=total damage to plant; 0=no damage to plant).

[7] = system: Echinochloa crus-galli (ECHCG); assay: B2 Post-emergence herbicidal activity; design: key to Post-emergence herbicidal activity, ECHCG (damage score 0-5): 5=total damage to plant; 0=no damage to plant; conditions: post-emergence application, rate 1000 g/ha, evaluated after 13 days
Procedure, shortened: (§3)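 Scores run from 0 for undamaged to 5 for fully killed plants, assessed 13 days post-spray. Application was post-emergence at 8 days of growth, using an acetone/water (50:50), 0.5% Tween 20 spray solution; growth at 24 °C day, 16 °C night, 65% humidity.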

Lolium perenne (LOLPE) [8] = assay: B2 Post-emergence herbicidal activity; conditions: post-emergence application, rate 1000 g/ha, evaluated after 13 days
Procedure: as §2

[9] = system: Alopecurus myosuroides (ALOMY); assay: B2 Post-emergence herbicidal activity; design: key: 5=total damage to plant; 0=no damage to plant; conditions: post-emergence application, rate 1000 g/ha, evaluated after 13 days
Procedure, shortened: as §3

Setaria fabenri (SETFA) = assay: B2 Post-emergence herbicidal activity; design: key: 5=total damage to plant; 0=no damage to plant; conditions: post-emergence application, rate 1000 g/ha, evaluated after 13 days
Procedure, shortened: as §3

[10] = system: Triticum aestivium (TRZAW); assay: B2 Post-emergence herbicidal activity; design: key: 5=total damage to plant; 0=no damage to plant; conditions: post-emergence application, rate 1000 g/ha, evaluated after 13 days
Procedure, shortened: as §3

| Compound | Pre-emergence herbicidal activity, ALOMY (damage score 0-5) [1] | Pre-emergence herbicidal activity, AVEFA (damage score 0-5) (Avena fatua (AVEFA) [2]) | Pre-emergence herbicidal activity, TRAZW (damage score 0-5) [3] | Pre-emergence herbicidal activity, ECHCG (damage score 0-5) [4] | Pre-emergence herbicidal activity, LOLPE (damage score 0-5) (Lolium perenne (LOLPE) [5]) | Pre-emergence herbicidal activity, SETFA (damage score 0-5) (Setaria fabenr (SETFA)) | Post-emergence herbicidal activity, AVEFA (damage score 0-5) (Avena fatua (AVEFA) [6]) | Post-emergence herbicidal activity, ECHCG (damage score 0-5) [7] | Post-emergence herbicidal activity, LOLPE (damage score 0-5) (Lolium perenne (LOLPE) [8]) | Post-emergence herbicidal activity, ALOMY (damage score 0-5) [9] | Post-emergence herbicidal activity, SETFA (damage score 0-5) (Setaria fabenri (SETFA)) | Post-emergence herbicidal activity, TRAZW (damage score 0-5) [10] |
| --- | --- | --- | --- | --- | --- | --- | --- | --- | --- | --- | --- | --- |
| CCC(=O)Nc1ccc(-c2cncc(F)c2)nc1C(F)(F)F [Compound C13] | 1 | 2 | 0 | 4 | 3 | 5 | 4 | 5 | 4 | 1 | 5 | 0 |
| O=C(Nc1ccc(-c2cncc(F)c2)nc1C(F)(F)F)c1ccccc1 [Compound C14] | 2 | 1 | 0 | 5 | 2 | 4 | 4 | 5 | 4 | 1 | 5 | 1 |
| CCC(=O)N(C)c1ccc(-c2cncc(F)c2)nc1C(F)(F)F [Compound C15, N-[6-(5-fluoro-3-pyridyl)-2-(trifluoromethyl)-3-pyridyl]-N-methyl-propanamide] | 0 | 0 | 0 | 5 | 1 | 5 | 3 | 5 | 3 | 1 | 5 | 1 |
| C=CCN(C(=O)C(C)C)c1ccc(-c2cncc(F)c2)nc1C(F)(F)F [Compound C16] | 0 | 1 | 0 | 4 | 2 | 5 | 4 | 5 | 3 | 1 | 5 | 1 |
| C/C=C/C(=O)Nc1ccc(-c2cncc(F)c2)nc1C(F)(F)F [Compound C23] | 1 | 3 | 1 | 5 | 1 | 5 | 3 | 5 | 3 | 0 | 5 | 0 |
| COCCC(=O)Nc1ccc(-c2cncc(F)c2)nc1C(F)(F)F [Compound C24] | 1 | 4 | 0 | 4 | 1 | 5 | 4 | 5 | 4 | 1 | 5 | 1 |
| O=C(Nc1ccc(-c2cncc(F)c2)nc1C(F)(F)F)C(Cl)Cl [Compound C26] | 0 | 2 | 0 | 5 | 1 | 5 | 4 | 5 | 4 | 0 | 5 | 1 |
| COCC(=O)Nc1ccc(-c2cncc(F)c2)nc1C(F)(F)F [Compound C27] | 0 | 3 | 0 | 5 | 1 | 5 | 4 | 5 | 3 | 1 | 5 | 1 |
| O=C(COc1ccccc1)Nc1ccc(-c2cncc(F)c2)nc1C(F)(F)F [Compound C28] | 0 | 3 | 0 | 4 | 1 | 4 | 4 | 5 | 3 | 0 | 5 | 0 |
| O=C(Nc1ccc(-c2cncc(F)c2)nc1C(F)(F)F)C(Cl)(Cl)Cl [Compound C29] | 0 | 4 | 0 | 5 | 1 | 5 | 4 | 5 | 3 | 0 | 5 | 0 |
| Cc1ccc(C(=O)Nc2ccc(-c3cncc(F)c3)nc2C(F)(F)F)cc1 [Compound C30] | 2 | 3 | 0 | 5 | 1 | 5 | 4 | 5 | 3 | 0 | 5 | 0 |
